“And” between values parts separate entries of the source, which are not always exact repeats. Equal entries are not always repeated. Where two headings read alike, the source gives them in different places.
Key:
MDM2 = target: T1, MDM2 (Homo sapiens, UniProt Q00987); experiment: Inhibition test of MDM2-P53 (GST-MDM2, Biotin-P53, Anti-GST-Tb, SA-XL665); assay type: binding
T1 construct: made in house
Outline: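 HTRF-type assay using 4 nM GST-MDM2 (final), Biotin-P53, SA-XL665 and anti-GST-Tb in PBS with 0.1% BSA, 5 mM DTT and 1 mM AEBSF. Compounds in 5-fold serial dilutions over twelve points; incubation 90 min at 25° C with shaking before plate-reader read-out.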

[1] = Pharmacokinetics in ICR mice after intravenous and intragastric administration; assay type: in vivo; conditions: for MRT last: read-out: MRT(0-t); for MRT inf: read-out: MRT(0-∞); for Vd: read-out: Vz
Outline: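 Plasma concentrations by LC-MS/MS (range 1 to 2000 ng/ml) following single intravenous (2 mg/kg) or oral gavage (5 mg/kg) dosing of fasted male ICR mice, three per group. Vehicle 5% DMSO + 40% PEG400 + 55% (10% HP-β-CD in saline); standard PK parameters including bioavailability calculated.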

[2] = tested on: human osteosarcoma cell line SJSA-1; experiment: Inhibition of proliferation of human osteosarcoma cell line SJSA-1 (DAPI staining, In Cell Analyzer); conditions: Homo sapiens, SJSA-1, 72 h, read-out: IC50 (nM), inhibitory activity on proliferation of human osteosarcoma cell line SJSA-1, SJSA-1, incubated 72 h
[3] = ICR mice, IV 2 mg/kg, individual animal, 2 mg/kg
[4] = ICR mice, PO 5 mg/kg, individual animal, 5 mg/kg
[5] = male, ICR, mouse, plasma, iv, 2 mg/kg, ICR mice, IV 2 mg/kg, individual animal
[6] = male, ICR, mouse, plasma, iv, 2 mg/kg, ICR mice, IV 2 mg/kg, mean of 3 animals
[7] = male, ICR, mouse, plasma, po, 5 mg/kg, ICR mice, PO 5 mg/kg, individual animal
[8] = male, ICR, mouse, plasma, po, 5 mg/kg, ICR mice, PO 5 mg/kg, mean of 3 animals

T1 sequence (Q00987 whole entry): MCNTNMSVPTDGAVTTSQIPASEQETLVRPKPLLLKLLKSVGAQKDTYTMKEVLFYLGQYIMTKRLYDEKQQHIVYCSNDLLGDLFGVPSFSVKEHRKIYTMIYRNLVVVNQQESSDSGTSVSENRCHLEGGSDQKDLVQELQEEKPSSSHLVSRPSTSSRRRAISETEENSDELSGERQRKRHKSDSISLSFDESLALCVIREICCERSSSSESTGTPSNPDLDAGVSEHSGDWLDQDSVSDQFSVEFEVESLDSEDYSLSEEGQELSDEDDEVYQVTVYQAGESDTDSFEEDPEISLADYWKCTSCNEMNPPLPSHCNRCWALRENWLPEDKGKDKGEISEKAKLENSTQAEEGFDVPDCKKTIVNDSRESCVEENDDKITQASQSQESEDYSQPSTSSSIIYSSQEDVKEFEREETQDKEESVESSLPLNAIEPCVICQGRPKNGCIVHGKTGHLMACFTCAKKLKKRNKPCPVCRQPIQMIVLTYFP

Which results are given for `COc1ncc(-c2nc3c(n2C(C)C)[C@@]2(C(=O)Nc4cc(Cl)ccc42)N(c2cc(Cl)ccc2F)C3=O)c(OC)n1` [Example S-44, (S)-6-chloro-5′-(5-chloro-2-fluorophenyl)-2′-(2,4-dimethoxypyrimidin-5-yl)-3′-isopropyl-3′H-spiro[dihydroindole-3,4′-pyrrolo[3,4-d]imidazole]-2,6′(5′H)-dione]?
IC50 (MDM2): 1.18 nM; AUC(0-t) [1, 3]: 2703.63 ng·h/mL and 2987.84 ng·h/mL; AUC(0-∞) [1, 3]: 3052.47 ng·h/mL and 3364.67 ng·h/mL; CL [1, 3]: 10.92 mL/min/kg and 9.91 mL/min/kg; Cmax [1, 3]: 826.58 ng/mL and 951.21 ng/mL; MRT(0-t) [1, 3]: 1.82 h; MRT(0-∞) [1, 3]: 2.61 h and 2.56 h; Vz [1, 3]: 1.82 L/kg and 1.64 L/kg; t1/2 [1, 3]: 1.92 h and 1.91 h; AUC(0-t) [1, 4]: 5161.46 ng·h/mL and 6287.89 ng·h/mL; AUC(0-∞) [1, 4]: 5447.83 ng·h/mL and 6556.64 ng·h/mL; Cmax [1, 4]: 1097.85 ng/mL and 1204.30 ng/mL; MRT(0-t) [1, 4]: 2.81 h and 3.08 h; MRT(0-∞) [1, 4]: 3.22 h and 3.38 h; Tmax [1, 4]: 2.00 h; t1/2 [1, 4]: 1.77 h and 1.65 h; AUC(0-inf) [1, 5]: 2770 ng·h/mL; clearance [1, 5]: 12.1 mL/min/kg; AUC(0-t) ([1]; male, ICR, mouse, plasma, iv, 2 mg/kg, ICR mice, IV 2 mg/kg, individual animal, read-out: AUC(0-t)): 2510 ng·h/mL; Cmax ([1]; male, ICR, mouse, plasma, iv, 2 mg/kg, ICR mice, IV 2 mg/kg, individual animal, read-out: Cmax): 872 ng/mL; MRT last [1, 5]: 1.71 h; MRT inf [1, 5]: 2.35 h; Tmax ([1]; male, ICR, mouse, plasma, iv, 2 mg/kg, ICR mice, IV 2 mg/kg, individual animal, read-out: Tmax): 0.08 h; Vd [1, 5]: 1.86 L/kg; half-life ([1]; male, ICR, mouse, plasma, iv, 2 mg/kg, ICR mice, IV 2 mg/kg, individual animal, read-out: t1/2 (converted)): 1.79 h; AUC(0-inf) [1, 6]: 3060 ng·h/mL; clearance [1, 6]: 11 mL/min/kg; AUC(0-t) ([1]; male, ICR, mouse, plasma, iv, 2 mg/kg, ICR mice, IV 2 mg/kg, mean of 3 animals, read-out: AUC(0-t)): 2730 ng·h/mL; Cmax ([1]; male, ICR, mouse, plasma, iv, 2 mg/kg, ICR mice, IV 2 mg/kg, mean of 3 animals, read-out: Cmax): 883 ng/mL; MRT last [1, 6]: 1.77 h; MRT inf [1, 6]: 2.51 h; Tmax ([1]; male, ICR, mouse, plasma, iv, 2 mg/kg, ICR mice, IV 2 mg/kg, mean of 3 animals, read-out: Tmax): 0.083 h; Vd [1, 6]: 1.77 L/kg; half-life ([1]; male, ICR, mouse, plasma, iv, 2 mg/kg, ICR mice, IV 2 mg/kg, mean of 3 animals, read-out: t1/2 (converted)): 1.87 h; AUC(0-inf) [1, 7]: 8960 ng·h/mL; AUC(0-t) ([1]; male, ICR, mouse, plasma, po, 5 mg/kg, ICR mice, PO 5 mg/kg, individual animal, read-out: AUC(0-t)): 7900 ng·h/mL; Cmax ([1]; male, ICR, mouse, plasma, po, 5 mg/kg, ICR mice, PO 5 mg/kg, individual animal, read-out: Cmax): 1360 ng/mL; MRT last [1, 7]: 3.17 h; MRT inf [1, 7]: 4.17 h; Tmax ([1]; male, ICR, mouse, plasma, po, 5 mg/kg, ICR mice, PO 5 mg/kg, individual animal, read-out: Tmax): 1 h; half-life ([1]; male, ICR, mouse, plasma, po, 5 mg/kg, ICR mice, PO 5 mg/kg, individual animal, read-out: t1/2 (converted)): 2.56 h; AUC(0-inf) [1, 8]: 6990 ng·h/mL; AUC(0-t) ([1]; male, ICR, mouse, plasma, po, 5 mg/kg, ICR mice, PO 5 mg/kg, mean of 3 animals, read-out: AUC(0-t)): 6450 ng·h/mL; Cmax ([1]; male, ICR, mouse, plasma, po, 5 mg/kg, ICR mice, PO 5 mg/kg, mean of 3 animals, read-out: Cmax): 1220 ng/mL; MRT last [1, 8]: 3.02 h; MRT inf [1, 8]: 3.59 h; Tmax ([1]; male, ICR, mouse, plasma, po, 5 mg/kg, ICR mice, PO 5 mg/kg, mean of 3 animals, read-out: Tmax): 1.33 h; half-life ([1]; male, ICR, mouse, plasma, po, 5 mg/kg, ICR mice, PO 5 mg/kg, mean of 3 animals, read-out: t1/2 (converted)): 2 h; AUC(0-t) ([1]; male, ICR, mouse, plasma, po, 5 mg/kg, oral intragastric administration 5 mg/kg, read-out: AUC0-t): 6450 ng·h/mL; half-life ([1]; male, ICR, mouse, plasma, po, 5 mg/kg, oral intragastric administration 5 mg/kg, read-out: half-life (converted)): 2 h; bioavailability ([1]; male, ICR, mouse, plasma, oral intragastric administration 5 mg/kg, read-out: bioavailability): 94.4%; bioavailability ([1]; male, mouse, plasma, ICR mice, PO 5 mg/kg vs IV 2 mg/kg, from mean values, read-out: F* (bioavailability)): 94.4%; IC50 [2]: 11.9 nM
